Source: the supplement of paper PMC10307832

Legend:
Assay in all cases: relative viability (nuclei count vs DMSO), 5 days (fraction); higher = more cells survive
NCI-H1734 = system: NCI-H1734
Summary of the method: (§1)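 Lung cancer cell lines, seeded in 1536-well plates, were treated the following day by pin tool with a single drug or with five library-drug doses (not always all listed) in √10 steps on top of a fixed anchor-drug dose. Cells were fixed and nuclei stained in one step after 5 days, and nuclei were counted. Relative viability is the nuclei count for treated wells divided by that for vehicle wells, reported as medians of duplicate plates.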

HCC-15 = system: HCC-15
Summary of the method: as §1

NCI-H520 = system: NCI-H520
Summary of the method: as §1

H3255 = system: H3255
Summary of the method: as §1

HCC-827 = system: HCC-827
Summary of the method: as §1

CAL-12T = system: CAL-12T
Summary of the method: as §1

NCI-H322M = system: NCI-H322M
Summary of the method: as §1

LK-2 = system: LK-2
Summary of the method: as §1

EKVX = system: EKVX
Summary of the method: as §1

SK-MES-1 = system: SK-MES-1
Summary of the method: as §1

NCI-H1437 = system: NCI-H1437
Summary of the method: as §1

PC-3 [JPC-3] = system: PC-3 [JPC-3]
Summary of the method: as §1

PC-14 = system: PC-14
Summary of the method: as §1

NCI-H2228 = system: NCI-H2228
Summary of the method: as §1

ABC-1 = system: ABC-1
Summary of the method: as §1

NCI-H1651 = system: NCI-H1651
Summary of the method: as §1

NCI-H661 = system: NCI-H661
Summary of the method: as §1

RERF-LC-KJ = system: RERF-LC-KJ
Summary of the method: as §1

NCI-H1355 = system: NCI-H1355
Summary of the method: as §1

NCI-H1650 = system: NCI-H1650
Summary of the method: as §1

SW 1573 = system: SW 1573
Summary of the method: as §1

COR-L23 = system: COR-L23
Summary of the method: as §1

NCI-H2405 = system: NCI-H2405
Summary of the method: as §1

## COc1cc(N2CCC(C(N)=O)CC2)ccc1Nc1nc(N)c(Cl)c(Nc2ccccc2S(=O)(=O)C(C)C)n1 [HG-5-88-01] + CC(=O)c1c(C)c2cnc(Nc3ccc(N4CCNCC4)cn3)nc2n(C2CCCC2)c1=O [Palbociclib] (partner 0.5 µM)
NCI-H1734; first compound 0.04 µM
  relative viability: 0.367
NCI-H1734; first compound 0.1265 µM
  relative viability: 0.301
NCI-H1734; first compound 0.4 µM
  relative viability: 0.326
NCI-H1734; first compound 1.265 µM
  relative viability: 0.33
NCI-H1734; first compound 4 µM
  relative viability: 0.312
HCC-15; first compound 0.04 µM
  relative viability: 0.772
HCC-15; first compound 0.1265 µM
  relative viability: 0.792
HCC-15; first compound 0.4 µM
  relative viability: 0.643
HCC-15; first compound 1.265 µM
  relative viability: 0.724
HCC-15; first compound 4 µM
  relative viability: 0.432
NCI-H520; first compound 0.04 µM
  relative viability: 0.206
NCI-H520; first compound 0.1265 µM
  relative viability: 0.216
NCI-H520; first compound 0.4 µM
  relative viability: 0.186
NCI-H520; first compound 1.265 µM
  relative viability: 0.247
NCI-H520; first compound 4 µM
  relative viability: 0.232
H3255; first compound 0.04 µM
  relative viability: 0.291
H3255; first compound 0.1265 µM
  relative viability: 0.312
H3255; first compound 0.4 µM
  relative viability: 0.309
H3255; first compound 4 µM
  relative viability: 0.277
HCC-827; first compound 0.04 µM
  relative viability: 0.583
HCC-827; first compound 0.1265 µM
  relative viability: 0.459
HCC-827; first compound 0.4 µM
  relative viability: 0.425
HCC-827; first compound 1.265 µM
  relative viability: 0.197
HCC-827; first compound 4 µM
  relative viability: 0.33
CAL-12T; first compound 0.04 µM
  relative viability: 0.509
CAL-12T; first compound 0.1265 µM
  relative viability: 0.552
CAL-12T; first compound 0.4 µM
  relative viability: 0.405
CAL-12T; first compound 1.265 µM
  relative viability: 0.214
CAL-12T; first compound 4 µM
  relative viability: 0.211
NCI-H322M; first compound 0.04 µM
  relative viability: 0.532
NCI-H322M; first compound 0.1265 µM
  relative viability: 0.492
NCI-H322M; first compound 0.4 µM
  relative viability: 0.477
NCI-H322M; first compound 1.265 µM
  relative viability: 0.337
NCI-H322M; first compound 4 µM
  relative viability: 0.443
LK-2; first compound 0.04 µM
  relative viability: 0.772
LK-2; first compound 0.1265 µM
  relative viability: 0.582
LK-2; first compound 0.4 µM
  relative viability: 0.71
LK-2; first compound 4 µM
  relative viability: 0.519
EKVX; first compound 0.04 µM
  relative viability: 0.507
EKVX; first compound 0.1265 µM
  relative viability: 0.425
EKVX; first compound 0.4 µM
  relative viability: 0.389
EKVX; first compound 4 µM
  relative viability: 0.293
SK-MES-1; first compound 0.04 µM
  relative viability: 0.319
SK-MES-1; first compound 0.1265 µM
  relative viability: 0.273
SK-MES-1; first compound 0.4 µM
  relative viability: 0.27
SK-MES-1; first compound 1.265 µM
  relative viability: 0.304
SK-MES-1; first compound 4 µM
  relative viability: 0.247
NCI-H1437; first compound 0.04 µM
  relative viability: 0.372
NCI-H1437; first compound 0.1265 µM
  relative viability: 0.299
NCI-H1437; first compound 0.4 µM
  relative viability: 0.271
NCI-H1437; first compound 1.265 µM
  relative viability: 0.28
NCI-H1437; first compound 4 µM
  relative viability: 0.243
PC-3 [JPC-3]; first compound 0.04 µM
  relative viability: 0.485
PC-3 [JPC-3]; first compound 0.1265 µM
  relative viability: 0.586
PC-3 [JPC-3]; first compound 0.4 µM
  relative viability: 0.512
PC-3 [JPC-3]; first compound 1.265 µM
  relative viability: 0.426
PC-3 [JPC-3]; first compound 4 µM
  relative viability: 0.422
PC-14; first compound 0.04 µM
  relative viability: 0.545
PC-14; first compound 0.1265 µM
  relative viability: 0.611
PC-14; first compound 0.4 µM
  relative viability: 0.464
PC-14; first compound 1.265 µM
  relative viability: 0.221
PC-14; first compound 4 µM
  relative viability: 0.0845
NCI-H2228; first compound 0.04 µM
  relative viability: 0.388
NCI-H2228; first compound 0.1265 µM
  relative viability: 0.388
NCI-H2228; first compound 0.4 µM
  relative viability: 0.319
NCI-H2228; first compound 1.265 µM
  relative viability: 0.247
NCI-H2228; first compound 4 µM
  relative viability: 0.231
ABC-1; first compound 0.04 µM
  relative viability: 0.667
ABC-1; first compound 0.1265 µM
  relative viability: 0.664
ABC-1; first compound 0.4 µM
  relative viability: 0.764
ABC-1; first compound 1.265 µM
  relative viability: 0.583
ABC-1; first compound 4 µM
  relative viability: 0.626
NCI-H1651; first compound 0.04 µM
  relative viability: 0.571
NCI-H1651; first compound 0.1265 µM
  relative viability: 0.51
NCI-H1651; first compound 0.4 µM
  relative viability: 0.517
NCI-H1651; first compound 1.265 µM
  relative viability: 0.458
NCI-H1651; first compound 4 µM
  relative viability: 0.616
NCI-H661; first compound 0.04 µM
  relative viability: 0.384
NCI-H661; first compound 0.1265 µM
  relative viability: 0.417
NCI-H661; first compound 0.4 µM
  relative viability: 0.416
NCI-H661; first compound 1.265 µM
  relative viability: 0.359
NCI-H661; first compound 4 µM
  relative viability: 0.426
RERF-LC-KJ; first compound 0.04 µM
  relative viability: 1.07
RERF-LC-KJ; first compound 0.1265 µM
  relative viability: 1.14
RERF-LC-KJ; first compound 0.4 µM
  relative viability: 1.08
RERF-LC-KJ; first compound 1.265 µM
  relative viability: 0.908
RERF-LC-KJ; first compound 4 µM
  relative viability: 0.656
NCI-H1355; first compound 0.04 µM
  relative viability: 0.4
NCI-H1355; first compound 0.1265 µM
  relative viability: 0.394
NCI-H1355; first compound 0.4 µM
  relative viability: 0.426
NCI-H1355; first compound 1.265 µM
  relative viability: 0.338
NCI-H1355; first compound 4 µM
  relative viability: 0.362
NCI-H1650; first compound 0.04 µM
  relative viability: 0.342
NCI-H1650; first compound 0.1265 µM
  relative viability: 0.391
NCI-H1650; first compound 0.4 µM
  relative viability: 0.327
NCI-H1650; first compound 1.265 µM
  relative viability: 0.298
NCI-H1650; first compound 4 µM
  relative viability: 0.223
SW 1573; first compound 0.04 µM
  relative viability: 0.412
SW 1573; first compound 0.1265 µM
  relative viability: 0.369
SW 1573; first compound 0.4 µM
  relative viability: 0.337
SW 1573; first compound 1.265 µM
  relative viability: 0.257
SW 1573; first compound 4 µM
  relative viability: 0.277
COR-L23; first compound 0.04 µM
  relative viability: 0.383
COR-L23; first compound 0.1265 µM
  relative viability: 0.225
COR-L23; first compound 0.4 µM
  relative viability: 0.266
COR-L23; first compound 1.265 µM
  relative viability: 0.235
COR-L23; first compound 4 µM
  relative viability: 0.26
NCI-H2405; first compound 0.04 µM
  relative viability: 0.515
NCI-H2405; first compound 0.1265 µM
  relative viability: 0.523
NCI-H2405; first compound 0.4 µM
  relative viability: 0.528
NCI-H2405; first compound 1.265 µM
  relative viability: 0.348
NCI-H2405; first compound 4 µM
  relative viability: 0.462
